{
  "source": "PubChem BioAssay AID2060901",
  "about": "(Molecular Pharmacology Branch, DTP, NCI, 2025)",
  "tested_on": "422866-222-R5-J1-PDC complex spheroids viability",
  "assay": "Anticancer human tumor 422866-222-R5-J1-PDC patient-derived pancreatic adenocarcinoma cell line growth inhibition [RAS]",
  "details": "for pIC50: curve of first compound; for viability, T/C: stronger effect = lower value",
  "outline": "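Multi-cell-type spheroids: tumor cells plus HUVEC endothelial cells and mesenchymal stem cells. RAS-pathway inhibitors were combined with targeted agents, each dosed in half-log steps down from clinical Cmax, or from 10 microM when Cmax was unknown.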",
  "note": "pIC50: −log10 of the molar value.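 Note: spheroids exposed to compounds for 7 days.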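 Throughout, for viability, T/C: 100% = DMSO vehicle control viability.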",
  "data": [
    {"smiles": "Cc1nc(N2CCC3(CC2)COC(C)C3N)c(CO)nc1Sc1ccnc(N)c1Cl", "note": "(centres undefined) + CCn1c(-c2cc(N3CCN(C)CC3)cnc2C(C)OC)c2c3cc(ccc31)-c1csc(n1)CC(NC(=O)C1CC1C)C(=O)N1CCCC(N1)C(=O)OCC(C)(C)C2", "values": [
      {"measurement": "pIC50", "setting": "second compound 0.000949 µM", "result": "> 7.50"},
      {"measurement": "pIC50", "setting": "second compound 0.003 µM", "result": "> 7.50"},
      {"measurement": "pIC50", "setting": "second compound 0.00949 µM", "result": "> 7.50"},
      {"measurement": "pIC50", "setting": "second compound 0.03 µM", "result": "> 7.50"},
      {"measurement": "pIC50", "setting": "second compound 0.0949 µM", "result": "> 7.50"},
      {"measurement": "pIC50", "setting": "second compound 0.3 µM", "result": "> 7.50"},
      {"measurement": "viability, T/C", "setting": "second compound 0.000949 µM, first compound 0.0316 µM", "result": 29.3, "unit": "%"},
      {"measurement": "viability, T/C", "setting": "second compound 0.000949 µM, first compound 0.1 µM", "result": 23.1, "unit": "%"},
      {"measurement": "viability, T/C", "setting": "second compound 0.000949 µM, first compound 0.316 µM", "result": 21.6, "unit": "%"},
      {"measurement": "viability, T/C", "setting": "second compound 0.000949 µM, first compound 1 µM", "result": 17.4, "unit": "%"},
      {"measurement": "viability, T/C", "setting": "second compound 0.000949 µM, first compound 3.16 µM", "result": 18.1, "unit": "%"},
      {"measurement": "viability, T/C", "setting": "second compound 0.000949 µM, first compound 10 µM", "result": 20.2, "unit": "%"},
      {"measurement": "viability, T/C", "setting": "second compound 0.003 µM, first compound 0.0316 µM", "result": 23.6, "unit": "%"},
      {"measurement": "viability, T/C", "setting": "second compound 0.003 µM, first compound 0.1 µM", "result": 18.5, "unit": "%"},
      {"measurement": "viability, T/C", "setting": "second compound 0.003 µM, first compound 0.316 µM", "result": 16.3, "unit": "%"},
      {"measurement": "viability, T/C", "setting": "second compound 0.003 µM, first compound 1 µM", "result": 16.7, "unit": "%"},
      {"measurement": "viability, T/C", "setting": "second compound 0.003 µM, first compound 3.16 µM", "result": 18.1, "unit": "%"},
      {"measurement": "viability, T/C", "setting": "second compound 0.003 µM, first compound 10 µM", "result": 21.2, "unit": "%"},
      {"measurement": "viability, T/C", "setting": "second compound 0.00949 µM, first compound 0.0316 µM", "result": 19.2, "unit": "%"},
      {"measurement": "viability, T/C", "setting": "second compound 0.00949 µM, first compound 0.1 µM", "result": 16.1, "unit": "%"},
      {"measurement": "viability, T/C", "setting": "second compound 0.00949 µM, first compound 0.316 µM", "result": 19.1, "unit": "%"},
      {"measurement": "viability, T/C", "setting": "second compound 0.00949 µM, first compound 1 µM", "result": 15.8, "unit": "%"},
      {"measurement": "viability, T/C", "setting": "second compound 0.00949 µM, first compound 3.16 µM", "result": 20.8, "unit": "%"},
      {"measurement": "viability, T/C", "setting": "second compound 0.00949 µM, first compound 10 µM", "result": 22.1, "unit": "%"},
      {"measurement": "viability, T/C", "setting": "second compound 0.03 µM, first compound 0.0316 µM", "result": 17.4, "unit": "%"},
      {"measurement": "viability, T/C", "setting": "second compound 0.03 µM, first compound 0.1 µM", "result": 16.3, "unit": "%"},
      {"measurement": "viability, T/C", "setting": "second compound 0.03 µM, first compound 0.316 µM", "result": 18.6, "unit": "%"},
      {"measurement": "viability, T/C", "setting": "second compound 0.03 µM, first compound 1 µM", "result": 17.5, "unit": "%"},
      {"measurement": "viability, T/C", "setting": "second compound 0.03 µM, first compound 3.16 µM", "result": 20.3, "unit": "%"},
      {"measurement": "viability, T/C", "setting": "second compound 0.03 µM, first compound 10 µM", "result": 20.4, "unit": "%"},
      {"measurement": "viability, T/C", "setting": "second compound 0.0949 µM, first compound 0.0316 µM", "result": 21, "unit": "%"},
      {"measurement": "viability, T/C", "setting": "second compound 0.0949 µM, first compound 0.1 µM", "result": 20.6, "unit": "%"},
      {"measurement": "viability, T/C", "setting": "second compound 0.0949 µM, first compound 0.316 µM", "result": 20, "unit": "%"},
      {"measurement": "viability, T/C", "setting": "second compound 0.0949 µM, first compound 1 µM", "result": 17.8, "unit": "%"},
      {"measurement": "viability, T/C", "setting": "second compound 0.0949 µM, first compound 3.16 µM", "result": 21.7, "unit": "%"},
      {"measurement": "viability, T/C", "setting": "second compound 0.0949 µM, first compound 10 µM", "result": 22.3, "unit": "%"},
      {"measurement": "viability, T/C", "setting": "second compound 0.3 µM, first compound 0.0316 µM", "result": 20.1, "unit": "%"},
      {"measurement": "viability, T/C", "setting": "second compound 0.3 µM, first compound 0.1 µM", "result": 20.2, "unit": "%"},
      {"measurement": "viability, T/C", "setting": "second compound 0.3 µM, first compound 0.316 µM", "result": 21.2, "unit": "%"},
      {"measurement": "viability, T/C", "setting": "second compound 0.3 µM, first compound 1 µM", "result": 18.1, "unit": "%"},
      {"measurement": "viability, T/C", "setting": "second compound 0.3 µM, first compound 3.16 µM", "result": 22.7, "unit": "%"},
      {"measurement": "viability, T/C", "setting": "second compound 0.3 µM, first compound 10 µM", "result": 24.4, "unit": "%"}
    ]},
    {"smiles": "CC1(C)CCC(Nc2ncc(C(F)(F)F)c(-c3c[nH]c4c(P(C)(C)=O)c(C#N)ccc34)n2)CN1", "note": "(centres undefined) + C#Cc1c(F)ccc2cc(O)cc(-c3ncc4c(N5CC6CCC(C5)N6)nc(OCC56CCCN5CC(F)C6)nc4c3F)c12", "values": [
      {"measurement": "pIC50", "setting": "second compound 0.0316 µM", "result": "< 6.52"},
      {"measurement": "pIC50", "setting": "second compound 0.1 µM", "result": 7.04},
      {"measurement": "pIC50", "setting": "second compound 0.316 µM", "result": 8.10},
      {"measurement": "pIC50", "setting": "second compound 1 µM", "result": 8.80},
      {"measurement": "pIC50", "setting": "second compound 3.16 µM", "result": "> 9.02"},
      {"measurement": "pIC50", "setting": "second compound 10 µM", "result": "> 9.02"},
      {"measurement": "viability, T/C", "setting": "second compound 0.0316 µM, first compound 0.000949 µM", "result": 112, "unit": "%"},
      {"measurement": "viability, T/C", "setting": "second compound 0.0316 µM, first compound 0.003 µM", "result": 83.3, "unit": "%"},
      {"measurement": "viability, T/C", "setting": "second compound 0.0316 µM, first compound 0.00949 µM", "result": 80.6, "unit": "%"},
      {"measurement": "viability, T/C", "setting": "second compound 0.0316 µM, first compound 0.03 µM", "result": 55.6, "unit": "%"},
      {"measurement": "viability, T/C", "setting": "second compound 0.0316 µM, first compound 0.0949 µM", "result": 62, "unit": "%"},
      {"measurement": "viability, T/C", "setting": "second compound 0.0316 µM, first compound 0.3 µM", "result": 56.4, "unit": "%"},
      {"measurement": "viability, T/C", "setting": "second compound 0.1 µM, first compound 0.000949 µM", "result": 100, "unit": "%"},
      {"measurement": "viability, T/C", "setting": "second compound 0.1 µM, first compound 0.003 µM", "result": 68, "unit": "%"},
      {"measurement": "viability, T/C", "setting": "second compound 0.1 µM, first compound 0.00949 µM", "result": 73.8, "unit": "%"},
      {"measurement": "viability, T/C", "setting": "second compound 0.1 µM, first compound 0.03 µM", "result": 38.2, "unit": "%"},
      {"measurement": "viability, T/C", "setting": "second compound 0.1 µM, first compound 0.0949 µM", "result": 47.5, "unit": "%"},
      {"measurement": "viability, T/C", "setting": "second compound 0.1 µM, first compound 0.3 µM", "result": 55.6, "unit": "%"},
      {"measurement": "viability, T/C", "setting": "second compound 0.316 µM, first compound 0.000949 µM", "result": 64.2, "unit": "%"},
      {"measurement": "viability, T/C", "setting": "second compound 0.316 µM, first compound 0.003 µM", "result": 66.4, "unit": "%"},
      {"measurement": "viability, T/C", "setting": "second compound 0.316 µM, first compound 0.00949 µM", "result": 45.5, "unit": "%"},
      {"measurement": "viability, T/C", "setting": "second compound 0.316 µM, first compound 0.03 µM", "result": 45.1, "unit": "%"},
      {"measurement": "viability, T/C", "setting": "second compound 0.316 µM, first compound 0.0949 µM", "result": 52.6, "unit": "%"},
      {"measurement": "viability, T/C", "setting": "second compound 0.316 µM, first compound 0.3 µM", "result": 45.3, "unit": "%"},
      {"measurement": "viability, T/C", "setting": "second compound 1 µM, first compound 0.000949 µM", "result": 54.1, "unit": "%"},
      {"measurement": "viability, T/C", "setting": "second compound 1 µM, first compound 0.003 µM", "result": 44.1, "unit": "%"},
      {"measurement": "viability, T/C", "setting": "second compound 1 µM, first compound 0.00949 µM", "result": 40.3, "unit": "%"},
      {"measurement": "viability, T/C", "setting": "second compound 1 µM, first compound 0.03 µM", "result": 42.7, "unit": "%"},
      {"measurement": "viability, T/C", "setting": "second compound 1 µM, first compound 0.0949 µM", "result": 34.5, "unit": "%"},
      {"measurement": "viability, T/C", "setting": "second compound 1 µM, first compound 0.3 µM", "result": 34.6, "unit": "%"},
      {"measurement": "viability, T/C", "setting": "second compound 3.16 µM, first compound 0.000949 µM", "result": 27, "unit": "%"},
      {"measurement": "viability, T/C", "setting": "second compound 3.16 µM, first compound 0.003 µM", "result": 37.7, "unit": "%"},
      {"measurement": "viability, T/C", "setting": "second compound 3.16 µM, first compound 0.00949 µM", "result": 28.4, "unit": "%"},
      {"measurement": "viability, T/C", "setting": "second compound 3.16 µM, first compound 0.03 µM", "result": 28.8, "unit": "%"},
      {"measurement": "viability, T/C", "setting": "second compound 3.16 µM, first compound 0.0949 µM", "result": 29.1, "unit": "%"},
      {"measurement": "viability, T/C", "setting": "second compound 3.16 µM, first compound 0.3 µM", "result": 26.9, "unit": "%"},
      {"measurement": "viability, T/C", "setting": "second compound 10 µM, first compound 0.000949 µM", "result": 24.2, "unit": "%"},
      {"measurement": "viability, T/C", "setting": "second compound 10 µM, first compound 0.003 µM", "result": 25.1, "unit": "%"},
      {"measurement": "viability, T/C", "setting": "second compound 10 µM, first compound 0.00949 µM", "result": 24.1, "unit": "%"},
      {"measurement": "viability, T/C", "setting": "second compound 10 µM, first compound 0.03 µM", "result": 27.8, "unit": "%"},
      {"measurement": "viability, T/C", "setting": "second compound 10 µM, first compound 0.0949 µM", "result": 27.9, "unit": "%"},
      {"measurement": "viability, T/C", "setting": "second compound 10 µM, first compound 0.3 µM", "result": 31.2, "unit": "%"}
    ]}
  ]
}
